In patent publication US11034725B2, “Compositions and methods for treating cardiovascular disease” (Genentech, Inc., priority 2016, dated 2021):
“And” between values parts separate entries of the source, which are not always exact repeats. Equal values may be shown once. “Also recorded” adds a separate entry of the source.

Assays:
[1] = target: T1, PCSK9 (Homo sapiens, UniProt Q8NBP7); conditions: Zhang et al. 2014; cited from earlier work
[2] = target: T1, PCSK9; assay: PCSK9/EGF(A) TR-FRET binding assay
[3] = target: T2, PCSK9Δhelix (Homo sapiens, UniProt Q8NBP7); assay: PCSK9Δhelix/Ab20 TR-FRET binding assay
T2 construct: Human PCSK9 construct M1-Q692 with an engineered TEV site (residue deletion Y166, R167); made in house; host or cells: CHO

[4] = target: T2, PCSK9Δhelix; assay: Surface plasmon resonance biosensor-based affinity analysis (Example 4); type: binding
[5] = tested on: His-EGF(A)-Fc; assay: His-EGF(A)-Fc TR-FRET counterscreen; conditions: counterscreen, Example 7
[6] = target: T2, PCSK9Δhelix; assay: Phage competition ELISA; conditions: binding of peptide-displaying phage to PCSK9Δhelix
Procedure: The sequences of selected clones were fused to the N-terminus of M13 major coat protein (p8) using Kunkel mutagenesis method (Kunkel et al., Methods Enzymol 154, 367-82). The resulting construct was transformed to E. Coli. XL1 blue, single colony was grown in 1 mL 2YT supplemented with 50 μg/mL carbenicillin, 10 μg/mL Tetracycline and M13 KO7 helper phage at 37° C. for 2 h, Kanamycin was added to final concentration of 25 μg/mL, growth was continued at 37° C. for 6 h. The culture was transferred to 30 mL 2YT supplemented with 50 μg/mL carbenicillin and 25 μg/mL kanamycin and grown at 37° C. overnight. The next day, the phage was harvested and purified using the standard protocol (Tonikian et al. Nat Protoc. 2007; 2(6):1368-86). […] The bound phage was detected with anti-M13-HRP and the ELISA signal was read at OD450 nm. […] Sub-saturating phage concentration that gave 80% of maximum binding signal was determined by the binding curve.
IC50 measurements were performed by mixing a fixed sub-saturating concentration of peptide-displaying phage with a serial dilution of synthetic peptides in PBT buffer. […] The plates were then washed 10 times with PBT buffer and the bound phage was detected by anti-M13-HRP. […]

[7] = target: T1, PCSK9; assay: Cell surface LDLR assay with HepG2 cells; type: cell-based; conditions: HepG2 cells
Procedure: HepG2 cells (ATCC; Manassas, Va.) were seeded into 48 well plates (Corning; Corning, N.Y.) at 1×10^5 cells per well in high glucose medium (DMEM, Gibco; Carlsbad, Calif.) containing 2 mM glutamine (Sigma), penicillin/streptomycin (Gibco) and 10% FBS (Sigma; St. Louis, Mo.) and incubated overnight. Then the medium was changed to DMEM containing 10% lipoprotein deficient serum (LPDS, Sigma). After 24 h, 15 μg/mL PCSK9 was incubated with peptides or Fab33 for 30 min, added to the cells and incubated at 37° C. for 4 h. Cells were rinsed with PBS and detached using Cell Dissociation Buffer in PBS (Gibco). After centrifugation, the resuspended cells were incubated with 1:20 anti LDLR antibody (Progen Biotechnik; Heidelberg, Germany) on ice for 10 min. The samples were then washed with PBS and incubated with 1:200 diluted goat anti mouse IgG (H+L) Alexa Fluor 488 (Invitrogen; Carlsbad, Calif.) on ice for 5 min. After two PBS washes, cells were re suspended in PBS containing 2.5 μg/mL of propidium iodide and analyzed on a dual laser flow cytometer (FACScan, Becton Dickinson; Franklin Lakes, N.J.). Relative fluorescence units (RFUs) were used to quantify LDLR expression levels on the HepG2 cell surface. Cell surface LDLR levels were expressed as percent of LDLR levels measured in the absence of PCSK9 (=control).
The effect of Compound 229 on PCSK9-mediated LDL receptor degradation was measured in a HepG2 cell assay as previously described (Zhang et al., J Biol Chem. 2014 Jan. 10; 289(2):942-55). Peptides at various concentrations were preincubated with 15 μg/mL PCSK9 in the presence of 0.5% DMSO for 30 min prior to the addition to cells. After a 4 h incubation, the cells were processed for measurements of LDL receptor surface levels by flow cytometry as described (Zhang et al., J Biol Chem. 2014 Jan. 10; 289(2):942-55) (FIG. 37).

[8] = target: T1, PCSK9; assay: Phage competition ELISA; type: binding; conditions: binding of peptide-displaying phage to PCSK9; listed as Pep2-8_K9gvpep7
Summary of the method: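 Fixed sub-saturating peptide-phage concentration (80% of max binding signal) mixed with serially diluted synthetic peptides in PBT, added to plates bearing immobilized biotinylated PCSK9 or PCSK9Δhelix, 1 h at room temperature. Bound phage detected with anti-M13-HRP at OD450 nm; IC50 from curve fit, 3 independent repeats.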

[9] = target: T3, LDLR ectodomain (Homo sapiens, UniProt P01130); conditions: biolayer interferometry, Lipari et al. 2012; read-out: Kd, binding to LDLR, previously reported; cited from earlier work
T3 construct: purchased R & D Systems

For Ac-TAFTSWEEYLDWV-NH2 [Pep2-8V2A], the “reduction of affinity for PCSK9 versus Pep2-8” value [1] is listed as “about 10 fold”.
In the case of “Ac-TVFTSWEEYLDWVGSGDLMPWNLVRIGLLR-NH2 [Compound 20]”, the “inhibition in the PCSK9/EGF(A) binding assay” value [2] is reported as “significantly improved relative to Pep2-8”, the “inhibition in the PCSK9Δhelix/Ab20 binding assay” value [3] is reported as “low nanomolar concentrations” and the IC50 ([3]; TR-FRET, Example 7, read-out: PCSK9Δhelix/Ab20 IC50) is reported as 1 nM. For the same substance, the “Kd range for PCSK9Δhelix binding” value [4] was “sub-nanomolar range”, the Kd ([4]; Table 7, Target PCSK9Δhelix, SPR at 20° C., read-out: Kd) was 0.366 nM and the IC50 [5] was greater than 50000 nM. The “IC50 in phage competition ELISA” value [6] was “single digit nanomolar range”, the EC50 ([7]; 15 μg/mL PCSK9, 4 h, FACS) was 1000 to 5000 nM and the “surface LDLR levels restored” value ([7]; maximal restoration, percent of control without PCSK9) was 100%. The “IC50 in phage competition ELISA” value [8] was “low nanomolar range; also recorded: single digit nanomolar range”.
In the case of “wildtype PCSK9: wildtype proprotein convertase subtilisin/kexin type 9”, the Kd [9] is given as 130 nM and 170 nM.
